The values below come from the supplement of paper PMC10307832.

Common to all, as to test: relative viability (nuclei count vs DMSO), 5 days (fraction); higher = more cells survive
Compound in assay [1]: C1=CC=C2C(=C1)N=C(S2)C(C#N)C3=NC(=NC=C3)NCCC4=CN=CC=C4 + Cc1cc(Nc2cc(N3CCN(C)CC3)nc(Sc3ccc(NC(=O)C4CC4)cc3)n2)n[nH]1 [Tozasertib] (partner 0.1 µM)
An outline of the steps:
(§1)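 Relative viability is defined as nuclei in treated wells over nuclei in vehicle wells. Duplicate plates were run and medians reported. Lung cancer cell lines in 1536-well plates were dosed by pin tool one day after seeding, with one drug or with a fixed anchor-drug dose plus five library-drug doses (not always all listed) in √10 steps, and nuclei were counted after 5 days.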

Compound in the assay “Vandetanib + Pemetrexed”: COc1cc2/c(=N/c3ccc(Br)cc3F)nc[nH]c2cc1OCC1CCN(C)CC1 [Vandetanib] + Nc1nc2[nH]cc(CCc3ccc(C(=O)N[C@@H](CCC(=O)O)C(=O)O)cc3)c2c(=O)[nH]1 [Pemetrexed] (partner 0.2 µM)
An outline of the steps: as §1

Compound in the assay “CUDC-101 + Pemetrexed”: C#Cc1cccc(Nc2ncnc3cc(OC)c(OCCCCCCC(=O)NO)cc23)c1 [CUDC-101] + Nc1nc2[nH]cc(CCc3ccc(C(=O)N[C@@H](CCC(=O)O)C(=O)O)cc3)c2c(=O)[nH]1 [Pemetrexed] (partner 0.2 µM)
An outline of the steps: as §1

Compound in the assay “Vandetanib + Palbociclib”: COc1cc2/c(=N/c3ccc(Br)cc3F)nc[nH]c2cc1OCC1CCN(C)CC1 [Vandetanib] + CC(=O)c1c(C)c2cnc(Nc3ccc(N4CCNCC4)cn3)nc2n(C2CCCC2)c1=O [Palbociclib] (partner 0.5 µM)
An outline of the steps: as §1

With PC-3 [JPC-3], the relative viability came to 0.661 in assay [1] (first compound 0.005 µM); 0.927 in assay [1] (first compound 0.01581 µM); 0.866 in assay [1] (first compound 0.05 µM); 0.791 in assay [1] (first compound 0.1581 µM); 0.706 in assay [1] (first compound 0.5 µM); 1.21 in the assay with Vandetanib + Pemetrexed (first compound 0.02 µM). Further, the relative viability with Vandetanib + Pemetrexed (first compound 0.06325 µM) amounted to 0.937; with Vandetanib + Pemetrexed (first compound 0.2 µM), 0.824; in the assay with Vandetanib + Pemetrexed (first compound 0.6325 µM), 0.65; with Vandetanib + Pemetrexed (first compound 2 µM), 0.374; with CUDC-101 + Pemetrexed (first compound 0.01 µM), 1.12; with CUDC-101 + Pemetrexed (first compound 0.03162 µM), 1.06. Further, the relative viability with CUDC-101 + Pemetrexed (first compound 0.1 µM) is 0.842; in the assay with CUDC-101 + Pemetrexed (first compound 0.3162 µM), 0.439; with CUDC-101 + Pemetrexed (first compound 1 µM) it was 0.393; with Vandetanib + Palbociclib (first compound 0.02 µM), 0.509; in the assay with Vandetanib + Palbociclib (first compound 0.06325 µM), 0.527; with Vandetanib + Palbociclib (first compound 0.2 µM), 0.592. For the same cell line, the relative viability with Vandetanib + Palbociclib (first compound 0.6325 µM) was determined as 0.553; with Vandetanib + Palbociclib (first compound 2 µM), 0.464.
Take PC-14: the relative viability in assay [1] (first compound 0.005 µM) turned out to be 0.573; in assay [1] (first compound 0.01581 µM), 0.667; in assay [1] (first compound 0.05 µM), 0.554; in assay [1] (first compound 0.1581 µM) it was 0.631; in assay [1] (first compound 0.5 µM), 0.45; with Vandetanib + Pemetrexed (first compound 0.02 µM), 0.133. The relative viability with Vandetanib + Pemetrexed (first compound 0.06325 µM) was 0.115; with Vandetanib + Pemetrexed (first compound 0.2 µM), 0.123; in the assay with Vandetanib + Pemetrexed (first compound 0.6325 µM) it was 0.179; with Vandetanib + Pemetrexed (first compound 2 µM), 0.165; with CUDC-101 + Pemetrexed (first compound 0.01 µM), 0.154; with CUDC-101 + Pemetrexed (first compound 0.03162 µM), 0.129. The relative viability came out at 0.156 in the assay with CUDC-101 + Pemetrexed (first compound 0.1 µM); 0.138 in the assay with CUDC-101 + Pemetrexed (first compound 0.3162 µM); 0.152 with CUDC-101 + Pemetrexed (first compound 1 µM); 0.536 in the assay with Vandetanib + Palbociclib (first compound 0.02 µM); 0.436 in the assay with Vandetanib + Palbociclib (first compound 0.06325 µM); 0.0488 in the assay with Vandetanib + Palbociclib (first compound 0.2 µM). For the same cell line, the relative viability with Vandetanib + Palbociclib (first compound 0.6325 µM) turned out to be 0.117; with Vandetanib + Palbociclib (first compound 2 µM), 0.0605.
RERF-LC-KJ: the relative viability in assay [1] (first compound 0.005 µM) is 0.535; in assay [1] (first compound 0.01581 µM), 0.549; in assay [1] (first compound 0.05 µM) it was 0.507; in assay [1] (first compound 0.1581 µM) it was 0.472; in assay [1] (first compound 0.5 µM), 0.413; in the assay with Vandetanib + Pemetrexed (first compound 0.02 µM) it was 0.46. Moreover, the relative viability with Vandetanib + Pemetrexed (first compound 0.06325 µM) came to 0.459; with Vandetanib + Pemetrexed (first compound 0.2 µM), 0.497; with Vandetanib + Pemetrexed (first compound 0.6325 µM), 0.418; in the assay with Vandetanib + Pemetrexed (first compound 2 µM) it was 0.46; with CUDC-101 + Pemetrexed (first compound 0.01 µM), 0.476; in the assay with CUDC-101 + Pemetrexed (first compound 0.03162 µM) it was 0.493. For the same cell line, the relative viability in the assay with CUDC-101 + Pemetrexed (first compound 0.1 µM) came out at 0.438; in the assay with CUDC-101 + Pemetrexed (first compound 0.3162 µM), 0.42; with CUDC-101 + Pemetrexed (first compound 1 µM), 0.357; with Vandetanib + Palbociclib (first compound 0.02 µM), 1.05; in the assay with Vandetanib + Palbociclib (first compound 0.06325 µM), 1.03; with Vandetanib + Palbociclib (first compound 0.2 µM), 0.673. Further, the relative viability with Vandetanib + Palbociclib (first compound 0.6325 µM) amounted to 0.993; with Vandetanib + Palbociclib (first compound 2 µM) it was 0.869.
For the cell line SK-LU-1, the relative viability worked out at 0.293 in assay [1] (first compound 0.005 µM); 0.344 in assay [1] (first compound 0.01581 µM); 0.33 in assay [1] (first compound 0.05 µM); 0.309 in assay [1] (first compound 0.1581 µM); 0.299 in assay [1] (first compound 0.5 µM); 0.971 with Vandetanib + Pemetrexed (first compound 0.02 µM). Also, the relative viability came to 0.787 in the assay with Vandetanib + Pemetrexed (first compound 0.06325 µM); 1.01 with Vandetanib + Pemetrexed (first compound 0.2 µM); 1.07 in the assay with Vandetanib + Pemetrexed (first compound 0.6325 µM); 1.04 in the assay with Vandetanib + Pemetrexed (first compound 2 µM); 0.948 with CUDC-101 + Pemetrexed (first compound 0.01 µM); 1.12 in the assay with CUDC-101 + Pemetrexed (first compound 0.03162 µM). The relative viability with CUDC-101 + Pemetrexed (first compound 0.1 µM) was determined as 0.948; with CUDC-101 + Pemetrexed (first compound 0.3162 µM) it was 0.965; with CUDC-101 + Pemetrexed (first compound 1 µM), 0.947; in the assay with Vandetanib + Palbociclib (first compound 0.02 µM), 0.387; in the assay with Vandetanib + Palbociclib (first compound 0.06325 µM), 0.314; with Vandetanib + Palbociclib (first compound 0.2 µM), 0.363. The results for the relative viability with Vandetanib + Palbociclib (first compound 0.6325 µM) and with Vandetanib + Palbociclib (first compound 2 µM) were 0.376 and 0.354, respectively.
With SK-MES-1, the relative viability came to 0.909 in assay [1] (first compound 0.005 µM); 0.978 in assay [1] (first compound 0.01581 µM); 0.838 in assay [1] (first compound 0.05 µM); 0.886 in assay [1] (first compound 0.1581 µM); 0.511 in assay [1] (first compound 0.5 µM); 1.01 with Vandetanib + Pemetrexed (first compound 0.02 µM). Besides, the relative viability in the assay with Vandetanib + Pemetrexed (first compound 0.06325 µM) amounted to 0.882; in the assay with Vandetanib + Pemetrexed (first compound 0.2 µM) it was 0.961; with Vandetanib + Pemetrexed (first compound 0.6325 µM), 0.77; in the assay with Vandetanib + Pemetrexed (first compound 2 µM) it was 0.93; with CUDC-101 + Pemetrexed (first compound 0.01 µM), 0.896; with CUDC-101 + Pemetrexed (first compound 0.03162 µM) it was 0.946. Further, the relative viability with CUDC-101 + Pemetrexed (first compound 0.1 µM) was found to be 0.922; with CUDC-101 + Pemetrexed (first compound 0.3162 µM), 0.972; in the assay with CUDC-101 + Pemetrexed (first compound 1 µM), 0.724; with Vandetanib + Palbociclib (first compound 0.02 µM), 0.349; with Vandetanib + Palbociclib (first compound 0.06325 µM), 0.292; with Vandetanib + Palbociclib (first compound 0.2 µM), 0.243. The relative viability turned out to be 0.332 with Vandetanib + Palbociclib (first compound 0.6325 µM) and 0.294 in the assay with Vandetanib + Palbociclib (first compound 2 µM).
Take SW 900: the relative viability in assay [1] (first compound 0.005 µM) is 0.452; in assay [1] (first compound 0.01581 µM) it was 0.489; in assay [1] (first compound 0.05 µM) it was 0.5; in assay [1] (first compound 0.1581 µM), 0.489; in assay [1] (first compound 0.5 µM), 0.362; with Vandetanib + Pemetrexed (first compound 0.02 µM), 0.472. Also, the relative viability with Vandetanib + Pemetrexed (first compound 0.06325 µM) was determined as 0.464; in the assay with Vandetanib + Pemetrexed (first compound 0.6325 µM) it was 0.483; with Vandetanib + Pemetrexed (first compound 2 µM) it was 0.464; in the assay with CUDC-101 + Pemetrexed (first compound 0.01 µM) it was 0.502; in the assay with CUDC-101 + Pemetrexed (first compound 0.03162 µM) it was 0.429; with CUDC-101 + Pemetrexed (first compound 0.1 µM), 0.452. For the same cell line, the relative viability with CUDC-101 + Pemetrexed (first compound 0.3162 µM) worked out at 0.454; with CUDC-101 + Pemetrexed (first compound 1 µM), 0.448; with Vandetanib + Palbociclib (first compound 0.02 µM) it was 0.624; in the assay with Vandetanib + Palbociclib (first compound 0.06325 µM), 0.547; with Vandetanib + Palbociclib (first compound 0.6325 µM), 0.48; in the assay with Vandetanib + Palbociclib (first compound 2 µM) it was 0.409.
Regarding SW 1573, the relative viability in assay [1] (first compound 0.005 µM) was 0.174; in assay [1] (first compound 0.01581 µM), 0.179; in assay [1] (first compound 0.1581 µM), 0.175; in assay [1] (first compound 0.5 µM) it was 0.156; with Vandetanib + Pemetrexed (first compound 0.02 µM), 0.899; with Vandetanib + Pemetrexed (first compound 0.06325 µM) it was 0.841. The relative viability in the assay with Vandetanib + Pemetrexed (first compound 0.6325 µM) amounted to 0.909; with Vandetanib + Pemetrexed (first compound 2 µM), 0.887; in the assay with CUDC-101 + Pemetrexed (first compound 0.01 µM), 0.86; with CUDC-101 + Pemetrexed (first compound 0.03162 µM), 0.97; in the assay with CUDC-101 + Pemetrexed (first compound 0.1 µM), 1.08; with CUDC-101 + Pemetrexed (first compound 0.3162 µM), 0.96. In addition, the relative viability was 0.459 with CUDC-101 + Pemetrexed (first compound 1 µM); 0.413 in the assay with Vandetanib + Palbociclib (first compound 0.02 µM); 0.421 in the assay with Vandetanib + Palbociclib (first compound 0.06325 µM); 0.29 with Vandetanib + Palbociclib (first compound 0.6325 µM); 0.403 with Vandetanib + Palbociclib (first compound 2 µM).
